Legend:
[1] = Photophysical properties of the metallacrowns in solid state and in aqueous solutions; format: physicochemical
Method: FIG. 4. illustrates the normalized excitation (λem(Nd^3+)=1070 nm, λem(Yb^3+)=980 nm) and emission (λex=370 nm) spectra of Yb^3+[Zn(II)MCpyzHA], at the top, and Nd^3+[Zn(II)MCpyzHA] MCs, at the bottom, (solid or 200 μM solutions, room temperature).

HeLa cells [2] = experiment: NIR epifluorescence microscopy of HeLa cells (necrotic cell labelling, simultaneous staining and fixing); format: cell-based, Human; conditions: 150 μM complex and 3 μM propidium iodide together, UV light (377 nm) 5 minutes
Method: (§1) Cells were seeded in a 8-well Lab Tek Chamber coverglass (Nunc, Dutsher S.A., Brumath, France) at a density of 6×10^4 cells/well and cultured at 37° C. in 5% humidified CO2 atmosphere.
The continued incubation enabled the internalization of the complexes.
All of the previously mentioned incubated HeLa cells were then washed with fresh OPTI-MEM® media and were incubated with 3 μM propidium iodide for 5 minutes. Propidium iodide is a commercially available stain (emitting in the visible range) for necrotic cells, and was used to confirm cell necrosis.
i. 377 nm with 50 nm band-pass filter with 50 nm bandwidth for the excitation and 805 nm long-pass filter 805 nm or 996 nm band-pass filter with 70 nm bandwidth for YbIII emission in the NIR range.
ii. […] for the excitation and 805 nm long-pass filter 805 nm or 996 nm band-pass filter with 70 nm bandwidth for YbIII emission in the NIR range. […]

HeLa cells [3] = experiment: NIR epifluorescence microscopy of HeLa cells treated with N-acetyl cysteine; format: cell-based, Human; conditions: 150 μM complex 15 minutes
Method: Formation of extracellular vesicules is a result of cellular response on oxidative stress which indicates excessive production of ROS (Reactive oxygen species). In order to investigate if ROS are responsible for dual function of Yb^3+[Zn(II)MCpyzHA], HeLa cancer cells were treated with NAC (N-acetyl cysteine), which is a well known antioxidant that efficiently blocks production of reactive oxygen species (ROS).
as §1
After 24 hours, the cell culture media was removed. Some of the cells were washed twice with OPTI-MEM® media (room temperature), incubated with N-acetyl cysteine (NAC) for 15 minutes, washed twice with OPTI-MEM® media and incubated with 150 μM of Yb^3+[Zn(II)MCpyzHA] for 15 minutes.
After 24 hours, the cell culture media was removed. Some of the cells were washed twice with OPTI-MEM® media (room temperature), and incubated with 150 μM of Yb^3+[Zn(II)MCpyzHA] for 15 minutes. N-acetyl cysteine (NAC) was added, and the cells were incubated for another 30 minutes. The cells were washed twice with OPTI-MEM® media.

[4] = Photostability stress tests; format: physicochemical; conditions: 150 μM in water and OPTI-MEM media, 5 hours of irradiation with 377 nm light
Method: Photostability stress tests of Yb^3+[Zn(II)MCpyzHA] (Yb λem=980 nm) and Nd^3+[Zn(II)MCpyzHA] (Nd λem=1064 nm) and the commercially available dye for necrotic cells (Propidium Iodide) were performed. The complexes (150 μM) or dye (50 μM) were dissolved in water and the complexes were also dissolved in OPTI-MEM® media. The MC solutions were exposed to 5 hours of UV radiation (377 nm). The propidium iodide solution was exposed to 5 hours of UV radiation (530 nm).

HeLa cells [5] = experiment: Raman spectroscopy of fixed HeLa cells; format: cell-based, Human; conditions: cells stained and fixed as in Example 1
Method: Raman spectroscopy maps were collected for living HeLa cells, HeLa cells that were fixed with paraformaldehyde (PFA), HeLa cells that were fixed with methanol (MeOH), and HeLa cells that were stained and fixed with Yb^3+[Zn(II)MCpyzHA] using the example method disclosed herein (as described in Example 1).
Cells were seeded in an 8-well Lab Tek Chamber coverglass, as previously described in Example 1. Cells were washed trice with OPTI-MEM® (room temperature) and incubated with 4% PFA solution in PBS (Phosphate Buffered Saline) for 30 minutes at room temperature. […]
To study the changes between the different samples, a background subtraction was applied and the signal was collected in the range of 0-4000 cm^−1 in different cellular structures, cytoplasm and nucleus, allowing to observe the variations of specific vibrations arising from the nucleic acids and proteins, in particular, the CH vibrational bands at 2800-3300 cm^−1 that reflect a distribution of proteins, lipids and carbohydrates in cells and often used to localize cellular organelles, as well as OH band in the range of 3100-3650 cm^−1. […] However, a more detailed analysis of Raman signal is required to fully quantify and identify corresponding peaks in order to completely understand changes in the biomolecular profile observed for the fixation with Yb^3+[Zn(II)MCpyzHA].

[6] = tested on: MSC (Mesenchymal Stem Cells); conditions: 150 μM, 15 minutes, UV light (377 nm) 8 minutes, further 1 hour
Method: The MSC (Mesenchyml Stem Cells) cell line was obtained from University in Orleans, 13MTO Laboratory (Orleans, France). The as-received MSC cell line has been obtained from the bone marrow of rats. The MSC cell line was cultured in Minimum Essential Medium (MEM) supplemented with 10% heat-inactivated fetal bovine serum (FBS), 1% of L-glutamine (GlutaMAX) and 1% of streptomycin/penicillin antibiotics. The MSC were also seeded in a similar manner to the HeLa cells.
After 24 hours, the respective cell culture media was removed and the HeLa cells or MSC were incubated with the Yb^3+[Zn(II)MCpyzHA] complex according to one of the following procedures.
The MSC cells were incubated with a solution of 150 μM Yb^3+[Zn(II)MCpyzHA] complex in OPTI-MEM® media (supplemented with 2% of FBS at 37° C. in 5% CO2 atmosphere) for 15 minutes, illuminated with UV light (377 nm) for 8 minutes, and then were allowed to continue incubating for 1 hour.
Prior to epifluorescent imaging, the HeLa and the MSC cells were washed twice with OPTI-MEM® (room temperature) in order to remove any non-specifically bound Yb^3+[Zn(II)MCpyzHA] complex.

HeLa cells [7] = experiment: NIR epifluorescence microscopy of HeLa cells (necrotic cell labelling, simultaneous staining and fixing); format: cell-based, Human; conditions: for Colocalization with propidium iodide: then 3 μM PI 5 minutes
[8] = 150 μM, 15 minutes, UV light (377 nm) 8 minutes, further 1 hour

For `O=C([N-][O-])c1cnccn1.O=C([N-][O-])c1cnccn1.O=C([N-][O-])c1cnccn1.O=C([N-][O-])c1cnccn1.O=C([N-][O-])c1cnccn1.O=C([N-][O-])c1cnccn1.O=C([N-][O-])c1cnccn1.O=C([N-][O-])c1cnccn1.O=C([N-][O-])c1cnccn1.O=C([N-][O-])c1cnccn1.O=C([N-][O-])c1cnccn1.O=C([N-][O-])c1cnccn1.O=C([N-][O-])c1cnccn1.O=C([N-][O-])c1cnccn1.O=C([N-][O-])c1cnccn1.O=C([N-][O-])c1cnccn1.O=S(=O)([O-])C(F)(F)F.O=S(=O)([O-])C(F)(F)F.O=S(=O)([O-])C(F)(F)F.[Yb+3].[Zn+2].[Zn+2].[Zn+2].[Zn+2].[Zn+2].[Zn+2].[Zn+2].[Zn+2].[Zn+2].[Zn+2].[Zn+2].[Zn+2].[Zn+2].[Zn+2].[Zn+2].[Zn+2].c1ccncc1.c1ccncc1.c1ccncc1.c1ccncc1.c1ccncc1.c1ccncc1.c1ccncc1.c1ccncc1` [Yb^3+[Zn(II)MCpyzHA]], the “Q (quantum yield), D2O” value ([1]; 200 μM in D2O, room temperature, excitation at 370 nm) was 0.257(3) %, the “Q (quantum yield), H2O” value ([1]; 200 μM in H2O, room temperature, excitation at 370 nm) was 1.12(7) · 10^−2% and the Excitation wavelength limit ([1]; FIG. 4 (Top), excitation spectrum) was “up to 480 nm”. For the same compound, the “Q (quantum yield), Solid” value ([1]; solid state, room temperature, excitation at 370 nm) was 0.659(4) %, the “Incubation time after which emission was observed in cells after UV illumination” value (HeLa cells [2]) was 20 min and the “Internalization inside the cells, complex Incubation First” value (HeLa cells [3]; then NAC 30 minutes) was “do not show internalization”. For the same compound, the “NIR signal in cells, NAC Incubation First” value (HeLa cells [3]; NAC 15 minutes, wash, exposure time 400 ms) was “very good signal in NIR”, the Photostability [4] was “fully photostable” and the “Biomolecular profile of fixed HeLa cells compared with PFA and methanol fixation (Raman)” value (HeLa cells [5]) was “very similar biomolecular profiles”. For the same compound, the “Function in MSC cells” value [6] was “acting as an NIR dye and cell fixative”, the “Selectivity of labelling for necrotic cells” value (HeLa cells [7]; 45 μM, 15 minutes, no UV light exposure (also 150 μM, 12 hours)) was “going exclusively in necrotic cells” and the “Specificity of the dye for cell state” value (HeLa cells [7]; 150 μM complex and 3 μM propidium iodide together, UV light (377 nm) 5 minutes) was “specific for dead and apoptotic cells”. For the same compound, the “NIR staining of fixed HeLa cancer cells (cell compartments)” value (HeLa cells [7]; [8]) was “operates as a NIR stain for the nucleus as well as for the cytoplasm”, the “Shape and morphology of stained and fixed cells one month after the procedure” value (HeLa cells [7]; 150 μM, 15 minutes, UV light (377 nm) 8 minutes, further 1 hour, imaged one month later) was “maintained the same shape and morphology” and the “Colocalization with propidium iodide” value (HeLa cells [7]; [8]) was “colocalize in the same cell compartments”. The “Colocalization with propidium iodide” value (HeLa cells [7]; 150 μM, 12 hours, no UV light) was “colocalize in the same cell compartment” and the “Toxicity to the HeLa cell line” value (HeLa cells [7]; 150 μM, incubation during 12 hours, no UV light exposure) was “toxic”.
